Experimental data as given in patent US8039488B2, “Methods and compositions for inhibition of angiogenesis” (Children's Medical Center Corporation, priority 1996, dated 2011).

Assays:
[1] = system: chick embryo chorioallantoic membrane; assay: Chick embryo chorioallantoic membrane (CAM) assay; type: in vivo; settings: examined 48 hours after implantation
From the text: The chick embryo chorioallantoic membrane assay described by Crum et al., Science 230:1375 et seq. […] See also, U.S. Pat. No. 5,001,116, hereby incorporated by reference, which describes the CAM assay at col. 7 of the patent. Briefly, fertilized chick embryos were removed from their shell on day 3 or 4, and a methylcellulose disc containing the compound was implanted on the chorioallantoic membrane.

[2] = system: bFGF induced corneal neovascularization; assay: Rabbit cornea angiogenesis assay; type: in vivo
Description: (§1) Pellets for implantation into rabbit corneas were made by mixing 110 μl of saline containing 12 μg of recombinant bFGF (Takeda Pharmaceuticals-Japan) with 40 mg of sucralfate (Bukh Meditec-Denmark); this suspension was added to 80 μl of 12% hydron (Interferon Sciences) in ethanol. 10 μl aliquots of this mixture was then pipetted onto Teflon pegs and allowed to dry producing approximately 17 pellets. A pellet was implanted into corneal micropockets of each eye of an anesthetized female New Zealand white rabbit, 2 mm from the limbus followed by topical application of erythromycin ointment onto the surface of the cornea. The animals were fed daily from 2 days post-implantation by gastric lavage with either drug suspended in 0.5% carboxymethyl cellulose or 0.5% carboxymethyl cellulose alone. Thalidomide was purchased from Andrulus Pharmaceutical (Maryland) and the EM-12 and Supidimide were kindly provided by Grunenthal GMBH (Germany). The animals were examined with a slit lamp every other day in a masked manner by the same corneal specialist. The area of corneal neovascularization was determined by measuring with a reticule the vessel length (L) from the limbus and the number of clock hours (C) of limbus involved. A formula was used to determine the area of a circular band segment: C/12*3.1416 [r^2−(r−L)^2] where r=6 mm the measured radius of the rabbit cornea.
Pellets containing bFGF and sucralfate were implanted into micropockets of both corneas of rabbits according to Example II. Vessel ingrowth into clear cornea from the limbus was first noted on day 2 and treatments (200 mg/kg orally) were begun on this day. The area of corneal neovascularization was measured from day 4 through day 12. Day 8 measurements were used for comparison between groups. […] Statistical analysis was performed with ANOVA with ranked data to account for interexperimental variation and to guard against a non-normal distribution of data (i.e. outliers) by utilizing a nonparametric method.

[3] = system: bFGF induced angiogenesis; assay: Angiogenesis in the eye, assay described in Example 2, bFGF; type: in vivo, rabbit
Description: (§2) Angiogenesis in the eye, in the assay described in Example 2, is produced by the presence of bFGF (basic fibroblastic growth factor) and VEGF (vascular endothelial cell growth factor).
as §1

[4] = system: bFGF induced angiogenesis; assay: Mouse corneal micropocket assay, bFGF pellets; type: in vivo, mice; settings: for inhibition in vivo at 100 mg/kg: dose 100 mg/kg once daily, area of corneal neovascularization vs controls; for inhibition in vivo at 200 mg/kg: dose 200 mg/kg once daily; for inhibition of bFGF induced neovascularization: dose not given
Description: (§3) Six to eight week old C57B 16 male mice were obtained from Jackson Laboratories, MA. The mice were anesthetized, and 0.4×0.4 mm pockets were made in the stroma of the mouse cornea adjacent to the limbus. Pellets containing 80 ng of either bFGF or VEGF were implanted in the pellets. The pellets containing bFGF were implanted 1.0-1.2 mm from the limbal vessels, while the pellets containing VEGF were implanted 0.5-0.7 mm from the limbal vessels. Erythromycin was then topically applied.
(§4) The vascular response to the pellets was measured by maximal vessel length and number of clock hours of neovascularization 5 days after implantation of the bFGF pellets and 6 days after implantation of the VEGF pellets. The area of corneal neovascularization was calculated using the following formula which best approximated the area of neovascularization: Area (mm^2)=[π×clock hours×length (mm)×0.2 (mm)].
(§5) Inhibitory effect is expressed in percentage representing the area of corneal neovascularization by either bFGF or VEGF compared to controls (n=8/experiment) of the experiments in which that particular drug was tested. N=the number of eyes that were tested and drugs were given once daily either sc, ip or oral as described.
as §3, with “implanted.” for “implanted in the pellets.”
as §4, with “The mice were then treated with thalidomide, indomethacin, sulindac, or combinations of thalidomide with either indomethacin or sulindac. The vascular” for “The vascular”, “which best approximates the area” for “which best approximated the area”
Six to eight week old C57B16 male mice, obtained from Jackson Laboratories, MA, were anesthetized, and 0.4×0.4 mm pockets were made in the stroma of the mouse cornea adjacent to the limbus. Pellets containing 80 ng of bFGF were implanted 1.0-1.2 mm from the limbal vessels. Erythromycin was then topically applied.
(§6) The mice were then treated with sulindac, or one of the sulindac derivatives, sulindac sulfone or sulindac sulfide. The vascular response to the pellets was measured by maximal vessel length and number of clock hours of neovascularization 5 days after implantation of the bFGF pellets. The area of corneal neovascularization was calculated using the following formula which best approximates the area of neovascularization: Area (mm^2)=[π×clock hours×length (mm)×0.2 (mm)].
Inhibitory effect is expressed in percentage representing the area of corneal neovascularization by bFGF compared to controls (n=8/experiment. N=the number of eyes that were tested and drugs were given once daily either sc, ip or oral as described.

[5] = system: VEGF induced angiogenesis; assay: Angiogenesis in the eye, assay described in Example 2, VEGF; type: in vivo, rabbit
Description: as §2, §1

[6] = system: bFGF induced corneal neovascularization; assay: Rabbit cornea angiogenesis assay; type: in vivo; settings: 100 mg/kg/day
[7] = system: VEGF induced angiogenesis; assay: Mouse corneal micropocket assay, VEGF pellets; type: in vivo, mice; settings: 6 days after implantation
Description: as §3, §4, §5
as §3, with “implanted.” for “implanted in the pellets.”
as §6, with “with thalidomide, indomethacin,” for “with”, “combinations” for “one”, “thalidomide with either indomethacin” for “the sulindac derivatives, sulindac sulfone”, “sulindac.” for “sulindac sulfide.”, “bFGF pellets and 6 days after implantation of the VEGF” for “bFGF”

V2-carcinoma = V2-carcinoma tumor assay in rabbits; type: in vivo, rabbit; settings: 17 days after start of treatment
Description: New Zealand White female rabbits, weighing approximately 1.5 kg, obtained from Charles River, Mass., were used for propagating the V2-carcinoma. This tumor originates from a Shope virus-induced papilloma. Small 0.5×0.5 cm pieces were implanted intramuscularly in the right thigh. Treatment with 200 mg/kg/day thalidomide (n=14), 60 mg/kg/day sulindac (n=5), or a combination of thalidomide and sulindac (n=10) was started at day 10 after tumor implantation, when the mean volume of the tumor was 6 cm^3. The control animals (n=13) were treated with methylcellulose. […] The data were collected in 3 separate experiments and each bar represents the standard error of the mean.

Crohn's disease = assay: Treatment of a patient with Crohn's disease; type: in vivo, human; settings: 100 mg twice a day orally, one week
Description: A patient with Crohn's disease was treated using the methods of the present invention. […] Thalidomide was orally administered to them at a dosage of 100 mg twice a day.

[8] = Mus musculus, 120 h, 5 days after implantation
[9] = Mus musculus, 120 h, dose 25 mg/kg once daily, 5 days after implantation

O=C(O)CCC(C(=O)O)N1C(=O)c2ccccc2C1=O (racemic) [Phthaloyl glutamic acid, N-phthaloyl-DL-glutamic acid]
CAM assay result (avascular zone around the methylcellulose disc) [1]: avascular zone with a mild scar | inhibition of angiogenesis in the rabbit cornea assay ([2]; 200 mg/kg): 29% | inhibitory activity on corneal neovascularization, in words ([2]; 200 mg/kg orally): weaker inhibitory effects than thalidomide

CO[C@@H]1[C@H](OC(=O)NC(=O)CCl)CC[C@]2(CO2)[C@H]1[C@@]1(C)O[C@@H]1CC=C(C)C [AGM 1470]
% Inhibition of bFGF induced angiogenesis ([3]; dose 30 mg/kg qod): 48%

CC(=O)Nc1ccc(O)cc1 [Acetaminophen]
inhibition in vivo at 100 mg/kg [4, 8]: 0% | % Inhibition of VEGF induced angiogenesis ([5]; dose 100 mg/kg): 0% | % Inhibition of bFGF induced angiogenesis ([3]; dose 100 mg/kg): 0%

CC(=O)Oc1ccccc1C(=O)O [Aspirin, aspirin]
% Inhibition of bFGF induced angiogenesis ([3]; dose 100 mg/kg): 8%

O=C1CCC(N2Cc3ccccc3C2=O)C(=O)N1 (stereo not shown) [EM-12]
median inhibition of the area of vascularized cornea ([2]; 200 mg/kg orally, day 8): 42% | % inhibition in the rabbit cornea assay ([2]; 200 mg/kg/day): 43% | % inhibition in the rabbit cornea assay [6]: 21%

O=c1ccc2cc(O)c(O)cc2o1 [Esculetin, esculetin]
inhibition in vivo at 200 mg/kg [4, 8]: 15%

C[C@]12CCC(=O)C=C1CC[C@@H]1[C@@H]2[C@@H](O)C[C@@]2(C)[C@H]1CC[C@]2(O)C(=O)CO [Hydrocortisone, hydrocortisone]
% Inhibition of VEGF induced angiogenesis ([5]; dose 20 mg/kg): 40% | % Inhibition of bFGF induced angiogenesis ([3]; dose 20 mg/kg): 50%

CC(C)Cc1ccc(C(C)C(=O)O)cc1 (stereo not shown) [Ibuprofen, ibuprofen]
inhibition in vivo at 25 mg/kg [4, 9]: 6% | % Inhibition of VEGF induced angiogenesis ([5]; dose 20 mg/kg): 11% | % Inhibition of bFGF induced angiogenesis ([3]; dose 20 mg/kg): 7% | % Inhibition of VEGF induced angiogenesis ([7]; dose 25 mg/kg once daily): 8%

COc1ccc2c(c1)c(CC(=O)O)c(C)n2C(=O)c1ccc(Cl)cc1 [Indomethacin, indomethacin]
inhibition in vivo at 5 mg/kg ([4]; Mus musculus, 120 h, dose 5 mg/kg once daily, 5 days after implantation): 59% | % Inhibition of VEGF induced angiogenesis ([7]; dose 5 mg/kg once daily): 61%

C[C@H](Cc1ccc(O)c(O)c1)[C@@H](C)Cc1ccc(O)c(O)c1 [NDGA, nordihydroguiaretic acid]
inhibition in vivo at 25 mg/kg [4, 9]: 30%

CS(=O)(=O)Nc1ccc([N+](=O)[O-])cc1OC1CCCCC1 [NS-398]
inhibition of bFGF induced neovascularization [4]: 25%

O=C1CCC(N2C(=O)c3ccccc3C2=O)C(=O)O1 (stereo not shown) [PGA]
inhibitory activity on corneal neovascularization, in words ([2]; 200 mg/kg orally): weaker inhibitory effects than thalidomide

O=C1CCN(c2ccccc2)N1 [Phenidone, phenidone]
inhibition in vivo at 100 mg/kg [4, 8]: 17%

O=c1c(O)c(-c2ccc(O)c(O)c2)oc2cc(O)cc(O)c12 [Quercetin, quercetin]
inhibition in vivo at 300 mg/kg ([4]; Mus musculus, 120 h, dose 300 mg/kg once daily, 5 days after implantation): 18%

CCCC(C(=O)OCCN(CC)CC)(c1ccccc1)c1ccccc1.Cl [SKF525AHCL]
inhibition of bFGF induced neovascularization [4]: 25%

CSc1ccc(/C=C2/C(C)=C(CC(=O)O)c3cc(F)ccc32)cc1 [Sulindac sulfide, sulindac sulfide]
inhibition in vivo at 25 mg/kg [4, 9]: 31% | % inhibition ([4]; dose 50 mg/kg once daily, bFGF pellets, 5 days after implantation): 34% | inhibition of bFGF induced neovascularization [4]: 34%

CC1=C(CC(=O)O)c2cc(F)ccc2/C1=C\c1ccc(S(C)(=O)=O)cc1 [Sulindac sulfone, sulindac sulfone]
% Inhibition of bFGF induced angiogenesis ([4]; dose 25 mg/kg once daily, 5 days after implantation): 31% | inhibition of bFGF induced neovascularization [4]: 31%

CC1=C(CC(=O)O)c2cc(F)ccc2/C1=C\c1ccc([S+](C)[O-])cc1 (stereo not shown) [Sulindac, (Z)-5-Fluoro-2-methyl-1-[[4-(methyl-sulfinyl)phenyl]methylene]-1H-indene-3-acetic acid]
inhibition of tumor growth (V2-carcinoma; 60 mg/kg/day oral): 35% | inhibition in vivo at 25 mg/kg [4, 9]: 50% | % Inhibition of VEGF induced angiogenesis ([5]; dose 25 mg/kg): 54% | % Inhibition of bFGF induced angiogenesis ([3]; dose 25 mg/kg): 52% | % Inhibition of VEGF induced angiogenesis ([7]; dose 25 mg/kg once daily): 55%

O=C1CCC(N2C(=O)c3ccccc3S2(=O)=O)C(=O)N1 (stereo not shown) [Supidimide]
inhibitory activity on corneal neovascularization, in words ([2]; 200 mg/kg orally): no activity | area of corneal neovascularization, % of control ([2]; 200 mg/kg orally, day 8): 107 % of control

O=C1CCC(N2C(=O)c3ccccc3C2=O)C(=O)N1 (stereo not shown) [Thalidomide, thalidomide]
inhibition of tumor growth (V2-carcinoma; 200 mg/kg/day oral): 55% | inhibition in vivo at 200 mg/kg [4, 8]: 41% | % Inhibition of VEGF induced angiogenesis ([5]; dose 200 mg/kg): 44% | density of vessel ingrowth ([2]; 200 mg/kg orally): markedly reduced | sedation of the rabbits ([2]; 200 mg/kg orally): did not demonstrate obvious sedation | onset of inhibition of angiogenesis ([2]; 200 mg/kg orally (FIG. 7)): after only two doses | inhibition of the area of vascularized cornea, range in three experiments ([2]; 200 mg/kg orally, day 8): 30-51% | median inhibition of the area of vascularized cornea ([2]; 200 mg/kg orally, day 8): 36% | gastrointestinal symptoms, including diarrhea and cramping (Crohn's disease): lessened | skin lesion on the lower leg (Crohn's disease): resolved | % Inhibition of bFGF induced angiogenesis ([3]; dose 200 mg/kg): 42% | % Inhibition of VEGF induced angiogenesis ([7]; dose 200 mg/kg once daily): 40%

O=C(O)c1cc2cc(Cc3cccnc3)ccc2o1 [furegrelate sodium]
inhibition of bFGF induced neovascularization [4]: 22%

carbomethylheptyl imidazole
inhibition of bFGF induced neovascularization [4]: 32%
